Test results reported in PubChem BioAssay AID248 (DTP/NCI, 2004).
“And” between values parts separate entries of the source, which are not always exact repeats. Equal entries are not always repeated. Toxic doses and inconclusive results are not listed. Rule as the data show it: active = T/C of 150% or more; inactive = T/C below 125%.

System: L1210 leukemia ip in BDF1 mice, survival T/C
Assay: NCI In Vivo Anticancer Drug Screen. Data for tumor model L1210 Leukemia (intraperitoneal) in B6D2F1 (BDF1) mice
Settings: endpoint: mean survival time, higher = longer survival
Method in brief: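 Antitumor effect is assessed in tumor-bearing animals. Survival in the compound arm is compared with a vehicle-dosed control arm and expressed as their quotient.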

[1] = dose: 100.0 mg/kg/injection, schedule: Q04DX002 (ip), vehicle: Klucel (hydroxypropylcellulose) (HPC)
[2] = dose: 200.0 mg/kg/injection, schedule: Q04DX002 (ip), vehicle: Klucel (hydroxypropylcellulose) (HPC)

Measured: T/C

CCc1ccc(/C=C/c2ccc(O)c3ncccc23)[n+](C)c1
inactive: dose: 2.0 mg/kg/injection, schedule: Q01DX015 (ip), vehicle: carboxymethylcellulose (CMC) 115 % of control | dose: 2.0 mg/kg/injection, schedule: Q03HX008 (ip), vehicle: other 94 % of control | dose: 2.0 mg/kg/injection, schedule: Q03HX016 (ip), vehicle: other 90 % of control | dose: 2.0 mg/kg/injection, schedule: Q03HX024 (ip), vehicle: other 98 % of control | dose: 4.0 mg/kg/injection, schedule: Q01DX009 (ip), vehicle: carboxymethylcellulose (CMC) 120 % of control | dose: 4.0 mg/kg/injection, schedule: Q01DX009 (ip), vehicle: other 97 % of control | dose: 4.0 mg/kg/injection, schedule: Q01DX015 (ip), vehicle: carboxymethylcellulose (CMC) 108 % of control | dose: 4.0 mg/kg/injection, schedule: Q03HX008 (ip), vehicle: other 98 % of control | dose: 4.0 mg/kg/injection, schedule: Q03HX016 (ip), vehicle: other 96 % of control | dose: 4.0 mg/kg/injection, schedule: Q03HX024 (ip), vehicle: other 97 % of control | dose: 5.0 mg/kg/injection, schedule: Q01DX001 (ip), vehicle: carboxymethylcellulose (CMC) 94 % of control | dose: 6.25 mg/kg/injection, schedule: Q01DX009 (ip), vehicle: saline 108 % of control | dose: 6.25 mg/kg/injection, schedule: Q04DX003 (ip), vehicle: saline 107 % of control | dose: 8.0 mg/kg/injection, schedule: Q01DX009 (ip), vehicle: other 106 % of control | dose: 8.0 mg/kg/injection, schedule: Q01DX015 (ip), vehicle: carboxymethylcellulose (CMC) 113 % of control | dose: 8.0 mg/kg/injection, schedule: Q03HX008 (ip), vehicle: other 104 % of control | dose: 8.0 mg/kg/injection, schedule: Q03HX016 (ip), vehicle: other 103 % of control | dose: 8.0 mg/kg/injection, schedule: Q03HX024 (ip), vehicle: other 108 % of control | dose: 10.0 mg/kg/injection, schedule: Q01DX001 (ip), vehicle: carboxymethylcellulose (CMC) 100 % of control | dose: 12.5 mg/kg/injection, schedule: Q01DX001 (ip), vehicle: saline 104 % of control | dose: 12.5 mg/kg/injection, schedule: Q01DX009 (ip), vehicle: saline 124 % of control | dose: 12.5 mg/kg/injection, schedule: Q04DX003 (ip), vehicle: saline 110 % of control | dose: 16.0 mg/kg/injection, schedule: Q01DX001 (ip), vehicle: other 107 % of control | dose: 16.0 mg/kg/injection, schedule: Q01DX009 (ip), vehicle: other 120 % of control | dose: 16.0 mg/kg/injection, schedule: Q03HX008 (ip), vehicle: other 112 % of control | dose: 16.0 mg/kg/injection, schedule: Q03HX016 (ip), vehicle: other 110 % of control | dose: 16.0 mg/kg/injection, schedule: Q03HX024 (ip), vehicle: other 122 % of control | dose: 16.0 mg/kg/injection, schedule: Q04DX003 (ip), vehicle: other 100 % of control | dose: 16.0 mg/kg/injection, schedule: Q08DX002 (ip), vehicle: other 97 % of control | dose: 20.0 mg/kg/injection, schedule: Q01DX001 (ip), vehicle: carboxymethylcellulose (CMC) 112 % of control | dose: 25.0 mg/kg/injection, schedule: Q01DX001 (ip), vehicle: saline 114 % of control | dose: 25.0 mg/kg/injection, schedule: Q01DX009 (ip), vehicle: saline 117 % of control | dose: 25.0 mg/kg/injection, schedule: Q04DX003 (ip), vehicle: saline 110 % of control | dose: 32.0 mg/kg/injection, schedule: Q01DX001 (ip), vehicle: other 102 % of control | dose: 32.0 mg/kg/injection, schedule: Q01DX009 (ip), vehicle: other 123 % of control | dose: 32.0 mg/kg/injection, schedule: Q01DX015 (ip), vehicle: carboxymethylcellulose (CMC) 121 % of control | dose: 32.0 mg/kg/injection, schedule: Q04DX003 (ip), vehicle: other 96 % of control | dose: 32.0 mg/kg/injection, schedule: Q08DX002 (ip), vehicle: other 96 % of control | dose: 40.0 mg/kg/injection, schedule: Q01DX001 (ip), vehicle: carboxymethylcellulose (CMC) 112 % of control

CCCCC(=O)c1ccc(C)cc1
inactive: dose: 100.0 mg/kg/injection, schedule: Q01DX001 (ip), vehicle: saline 102 % of control | dose: 200.0 mg/kg/injection, schedule: Q01DX001 (ip), vehicle: saline 98 % of control | dose: 400.0 mg/kg/injection, schedule: Q01DX001 (ip), vehicle: saline 96 % of control

CCCCCCCCCCC(=O)N1CCCCCC1
inactive: dose: 50.0 mg/kg/injection, schedule: Q04DX002 (ip), vehicle: Klucel (hydroxypropylcellulose) (HPC) 100 % of control | [1] 100 % of control | [2] 95 % of control

O=C1CCCC/C1=C/c1ccco1
inactive: [1] 95 % of control | [2] 99 % of control | dose: 400.0 mg/kg/injection, schedule: Q04DX002 (ip), vehicle: Klucel (hydroxypropylcellulose) (HPC) 99 % of control

COc1ccc(/C(C#N)=C2\OC(=O)c3ccccc32)cc1OC
inactive: dose: 100.0 mg/kg/injection, schedule: Q01DX001 (ip), vehicle: carboxymethylcellulose (CMC) 89 % of control | dose: 200.0 mg/kg/injection, schedule: Q01DX001 (ip), vehicle: carboxymethylcellulose (CMC) 94 % of control | dose: 400.0 mg/kg/injection, schedule: Q01DX001 (ip), vehicle: carboxymethylcellulose (CMC) 89 % of control

NC(=S)N/N=C1/C(=O)c2cccc3cccc1c23
inactive: dose: 75.0 mg/kg/injection, schedule: Q01DX001 (ip), vehicle: other 96 % of control

NS(=O)(=O)c1ccc(NC(=O)Nc2cc(C(F)(F)F)ccc2Cl)cc1
inactive: dose: 100.0 mg/kg/injection, schedule: Q01DX009 (ip), vehicle: Klucel (hydroxypropylcellulose) (HPC) 95 % of control | dose: 200.0 mg/kg/injection, schedule: Q01DX009 (ip), vehicle: Klucel (hydroxypropylcellulose) (HPC) 100 % of control | dose: 400.0 mg/kg/injection, schedule: Q01DX009 (ip), vehicle: Klucel (hydroxypropylcellulose) (HPC) 98 % of control

CC(=O)C(C[CH2][Hg][Cl])C(C)=O
inactive: dose: 9.37 mg/kg/injection, schedule: Q01DX001 (ip), vehicle: other 96 % of control | dose: 18.75 mg/kg/injection, schedule: Q01DX001 (ip), vehicle: other 97 % of control | dose: 37.5 mg/kg/injection, schedule: Q01DX001 (ip), vehicle: other 100 % of control

CCCCNC(=O)Oc1ccc(C(=O)OCCC)cc1
inactive: dose: 50.0 mg/kg/injection, schedule: Q01DX009 (ip), vehicle: saline with Tween-80 102 % of control and 106 % of control | dose: 100.0 mg/kg/injection, schedule: Q01DX009 (ip), vehicle: other 110 % of control and 86 % of control | dose: 100.0 mg/kg/injection, schedule: Q01DX009 (ip), vehicle: saline with Tween-80 103 % of control and 104 % of control | dose: 100.0 mg/kg/injection, schedule: Q04DX002 (ip), vehicle: other 100 % of control and 101 % of control | dose: 200.0 mg/kg/injection, schedule: Q01DX009 (ip), vehicle: other 89 % of control | dose: 200.0 mg/kg/injection, schedule: Q01DX009 (ip), vehicle: saline with Tween-80 96 % of control and 103 % of control | dose: 200.0 mg/kg/injection, schedule: Q04DX002 (ip), vehicle: other 93 % of control and 105 % of control | dose: 400.0 mg/kg/injection, schedule: Q01DX009 (ip), vehicle: other 93 % of control and 90 % of control | dose: 400.0 mg/kg/injection, schedule: Q04DX002 (ip), vehicle: other 96 % of control and 92 % of control

CC1=Nc2ccccc2SC(C)(C)C1
inactive: dose: 50.0 mg/kg/injection, schedule: Q01DX001 (ip), vehicle: Klucel (hydroxypropylcellulose) (HPC) 98 % of control | dose: 100.0 mg/kg/injection, schedule: Q01DX001 (ip), vehicle: Klucel (hydroxypropylcellulose) (HPC) 91 % of control | dose: 200.0 mg/kg/injection, schedule: Q01DX001 (ip), vehicle: Klucel (hydroxypropylcellulose) (HPC) 109 % of control | dose: 400.0 mg/kg/injection, schedule: Q01DX001 (ip), vehicle: Klucel (hydroxypropylcellulose) (HPC) 98 % of control
